In patent US20140155580A1, “TRANSGENIC AVES PRODUCING HUMAN POLYCLONAL ANTIBODIES” (Synageva BioPharma Corp., priority 2003, published 2014):

System: chicken embryonic stem cells
Assay: Titration kill curve: cES cells in culture exposed to puromycin or neomycin
Type: cell-based
Design: key to Morphology of cES cells: ES: ES cells are present.; diff: ES cells are differentiated.; gone: no morphologically recognizable cells are present
Procedure: In a preferred embodiment, the concentration of puromycin required for selecting transfected cells is calculated as a titration kill curve. Titration kill curves for chicken embryonic stem cells are established by exposing cells in culture to puromycin concentrations varying from 0.0 to 1.0 μg/ml for 10 days (Table 7) and neomycin concentrations varying from 0.0 to 200 μg/ml (Table 8). The medium is changed every 2 days and fresh puromycin or neomycin is added. […] Puromycin concentrations of 0.3-1.0 μg/ml are used for selection of the transfected cultures. Neomycin concentrations over 40 μg/ml eliminated all cES cells within 7 days (Table 8).

neomycin
Diff: Morphology of cES cells (neomycin 30 μg/ml, day 9 under selection) | Morphology of cES cells (neomycin 100 μg/ml, day 2 under selection)
dead: Morphology of cES cells (neomycin 40 μg/ml, day 7 under selection) | Morphology of cES cells (neomycin 100 μg/ml, day 3 under selection) | Morphology of cES cells (neomycin 150 μg/ml, day 1 under selection) | Morphology of cES cells (neomycin 150 μg/ml, day 2 under selection) | Morphology of cES cells (neomycin 200 μg/ml, day 1 under selection)
≤ 7 days: Time in which all cES cells were eliminated (neomycin concentrations over 40 μg/ml)
ES: Morphology of cES cells (neomycin 10 μg/ml, day 1 under selection) | Morphology of cES cells (neomycin 10 μg/ml, day 2 under selection) | Morphology of cES cells (neomycin 10 μg/ml, day 3 under selection) | Morphology of cES cells (neomycin 10 μg/ml, day 4 under selection) | Morphology of cES cells (neomycin 10 μg/ml, day 5 under selection) | Morphology of cES cells (neomycin 10 μg/ml, day 6 under selection) | Morphology of cES cells (neomycin 10 μg/ml, day 7 under selection) | Morphology of cES cells (neomycin 10 μg/ml, day 8 under selection) | Morphology of cES cells (neomycin 10 μg/ml, day 9 under selection) | Morphology of cES cells (neomycin 10 μg/ml, day 10 under selection) | Morphology of cES cells (neomycin 20 μg/ml, day 1 under selection) | Morphology of cES cells (neomycin 20 μg/ml, day 2 under selection) | Morphology of cES cells (neomycin 20 μg/ml, day 3 under selection) | Morphology of cES cells (neomycin 20 μg/ml, day 4 under selection) | Morphology of cES cells (neomycin 20 μg/ml, day 5 under selection) | Morphology of cES cells (neomycin 20 μg/ml, day 6 under selection) | Morphology of cES cells (neomycin 20 μg/ml, day 7 under selection) | Morphology of cES cells (neomycin 20 μg/ml, day 8 under selection) | Morphology of cES cells (neomycin 20 μg/ml, day 9 under selection) | Morphology of cES cells (neomycin 20 μg/ml, day 10 under selection) | Morphology of cES cells (neomycin 30 μg/ml, day 1 under selection) | Morphology of cES cells (neomycin 30 μg/ml, day 2 under selection) | Morphology of cES cells (neomycin 30 μg/ml, day 3 under selection) | Morphology of cES cells (neomycin 30 μg/ml, day 4 under selection) | Morphology of cES cells (neomycin 30 μg/ml, day 5 under selection) | Morphology of cES cells (neomycin 30 μg/ml, day 6 under selection) | Morphology of cES cells (neomycin 40 μg/ml, day 1 under selection) | Morphology of cES cells (neomycin 40 μg/ml, day 2 under selection) | Morphology of cES cells (neomycin 40 μg/ml, day 3 under selection) | Morphology of cES cells (neomycin 40 μg/ml, day 4 under selection) | Morphology of cES cells (neomycin 50 μg/ml, day 1 under selection) | Morphology of cES cells (neomycin 50 μg/ml, day 2 under selection) | Morphology of cES cells (neomycin 50 μg/ml, day 3 under selection) | Morphology of cES cells (neomycin 60 μg/ml, day 1 under selection) | Morphology of cES cells (neomycin 60 μg/ml, day 2 under selection) | Morphology of cES cells (neomycin 60 μg/ml, day 3 under selection)
gone: Morphology of cES cells (neomycin 40 μg/ml, day 8 under selection) | Morphology of cES cells (neomycin 40 μg/ml, day 9 under selection) | Morphology of cES cells (neomycin 40 μg/ml, day 10 under selection) | Morphology of cES cells (neomycin 50 μg/ml, day 8 under selection) | Morphology of cES cells (neomycin 50 μg/ml, day 9 under selection) | Morphology of cES cells (neomycin 50 μg/ml, day 10 under selection) | Morphology of cES cells (neomycin 60 μg/ml, day 4 under selection) | Morphology of cES cells (neomycin 60 μg/ml, day 5 under selection) | Morphology of cES cells (neomycin 60 μg/ml, day 6 under selection) | Morphology of cES cells (neomycin 60 μg/ml, day 7 under selection) | Morphology of cES cells (neomycin 60 μg/ml, day 8 under selection) | Morphology of cES cells (neomycin 60 μg/ml, day 9 under selection) | Morphology of cES cells (neomycin 60 μg/ml, day 10 under selection) | Morphology of cES cells (neomycin 100 μg/ml, day 4 under selection) | Morphology of cES cells (neomycin 100 μg/ml, day 5 under selection) | Morphology of cES cells (neomycin 100 μg/ml, day 6 under selection) | Morphology of cES cells (neomycin 100 μg/ml, day 7 under selection) | Morphology of cES cells (neomycin 100 μg/ml, day 8 under selection) | Morphology of cES cells (neomycin 100 μg/ml, day 9 under selection) | Morphology of cES cells (neomycin 100 μg/ml, day 10 under selection) | Morphology of cES cells (neomycin 150 μg/ml, day 3 under selection) | Morphology of cES cells (neomycin 150 μg/ml, day 4 under selection) | Morphology of cES cells (neomycin 150 μg/ml, day 5 under selection) | Morphology of cES cells (neomycin 150 μg/ml, day 6 under selection) | Morphology of cES cells (neomycin 150 μg/ml, day 7 under selection) | Morphology of cES cells (neomycin 150 μg/ml, day 8 under selection) | Morphology of cES cells (neomycin 150 μg/ml, day 9 under selection) | Morphology of cES cells (neomycin 150 μg/ml, day 10 under selection) | Morphology of cES cells (neomycin 200 μg/ml, day 2 under selection) | Morphology of cES cells (neomycin 200 μg/ml, day 3 under selection) | Morphology of cES cells (neomycin 200 μg/ml, day 4 under selection) | Morphology of cES cells (neomycin 200 μg/ml, day 5 under selection) | Morphology of cES cells (neomycin 200 μg/ml, day 6 under selection) | Morphology of cES cells (neomycin 200 μg/ml, day 7 under selection) | Morphology of cES cells (neomycin 200 μg/ml, day 8 under selection) | Morphology of cES cells (neomycin 200 μg/ml, day 9 under selection) | Morphology of cES cells (neomycin 200 μg/ml, day 10 under selection)
